Six compounds from patent US4760147A, “Optically active, substituted 1,4-dihydropyridines and their use as medicaments” (Cassella Aktiengesellschaft, priority 1984, dated 1988) can be followed below.

In the assay the test system is spiral strips of the arteria pulmonalis of guineapigs. The assay can be described thus: calcium-antagonistic action: relaxing effect on potassium-depolarised, CaCl2-contracted spiral strips of the arteria pulmonalis (modified method of Godfraind and Kaba and of Schumann et al). It is filed as cell-based. Particulars: depolarised with 40 mmol potassium; contraction triggered by 0.5 mmol CaCl2; mean value of 4 to 6 vascular strips; read-out: IC50 (concentration which inhibits the contraction by 50%). As to the method:
In these experiments, spiral strips of the arteria pulmonalis of guineapigs are depolarised with 40 mmol of potassium, after equilibration in calcium-freeTyrode's solution. The addition of 0.5 mmol of CaCl2 then triggers off contraction. The relaxing effect of the test substance is determined by cumulative addition in 1/2 log 10 graduated concentrations. The concentration of the test substance which inhibits the contraction by 50% (=IC50, mole/l) is determined from the concentration/effect curve (abscissa: -log mole/l of test substance, ordinate: % inhibition of the maximum contraction, mean value of 4 to 6 vascular strips).
`CC1=C(C(=O)OC(C)C)C(c2cccc(Cl)c2Cl)C(c2nnco2)=C(C)N1` (single isomer, unassigned) [Example 1e, Isopropyl (-)-1,4-dihydro-2,6-dimethyl-3-(1,3,4-oxadiazol-2-yl)-4-(2,3-dichlorophenyl)-pyridine-5-carboxylate]: the IC50 was 0.04 nM.

Turning to `COC(=O)C1=C(C)NC(C)=C(c2nnco2)C1c1cccc(Cl)c1Cl` (single isomer, unassigned) [Example 2, Methyl (-)-1,4-dihydro-2,6-dimethyl-3-(1,3,4-oxadiazol-2-yl)-4-(2,3-dichlorophenyl)-pyridine-5-carboxylate], the IC50 was 0.2 nM.

For the compound `CCOC(=O)C1=C(C)NC(C)=C(c2nnco2)C1c1cccc(Cl)c1Cl` (single isomer, unassigned) [Example 3, Ethyl (-)-1,4-dihydro-2,6-dimethyl-3-(1,3,4-oxadiazol-2-yl)-4-(2,3-dichlorophenyl)-pyridine-5-carboxylate], the IC50 was 0.07 nM. Consider `COCCOC(=O)C1=C(C)NC(C)=C(c2nnco2)C1c1cccc(Cl)c1Cl` (single isomer, unassigned) [Example 4, Methoxyethyl (-)-1,4-dihydro-2,6-dimethyl-3-(1,3,4-oxadiazol-2-yl)-4-(2,3-dichlorophenyl)-pyridine-5-carboxylate], for which the IC50 stood at 0.3 nM.

Take `CCOC(=O)[C@@H](C)OC(=O)C1=C(C)NC(C)=C(c2nnco2)C1c1cccc(Cl)c1Cl` (single isomer, unassigned) [Example 8c]: the IC50 is 0.04 nM. For `CC1=C(C(=O)OCCOC(C)C)C(c2cccc(Cl)c2Cl)C(c2nnco2)=C(C)N1` (single isomer, unassigned) [Example 16, 2-isopropoxy-ethyl (-)-1,4-dihydro-2,6-dimethyl-3-(1,3,4-oxadiazol-2-yl)-4-(2,3-dichlorophenyl)-pyridine-5-carboxylate] the value was 0.1 nM.
